Laboratory results as given in US20110105855A1, “EARLY DETECTION OF COGNITION IMPAIRMENT IN ELDERLY POPULATION” (TRUSTEES OF TUFTS COLLEGE, priority 2009, published 2011).

Experiments:
[1] = elderly population of healthy 65 year olds; cited from earlier work
[2] = design: species or system rhesus monkeys (Macaca mulatta); conditions: rhesus monkey, in vivo, 2.2 mg/kg/day
Text: Study 1. Lutein and Zeaxanthin Supplementation Study. Eighteen rhesus monkeys (Macaca mulatta) were reared on one of two semipurified diets, both of which contained adequate levels of all known nutrients, but no detectable xanthophylls as analyzed by our laboratory. The animals also received limited amounts of very low xanthophyll foods such as wheat or rice cereals, white rice, sweetened drinks and gelatin, pineapple and banana.
Beginning at 7-16 years of age, 6 of these monkeys were supplemented with pure lutein and 6 with pure zeaxanthin, at 3.9 μmol/kg/day (2.2 mg/kg/day). The lutein and zeaxanthin supplements were purified or synthesized by DSM Nutritional Products, Ltd. The supplements were inserted into marshmallows, sweetened gelatin or small pieces of fruit. Beadlets and individual supplement doses were stored at 4° C. in the dark. […]
Biopsy punches were used to dissect the central retina, containing the macula, into a 4 mm diameter circle centered on the fovea. Retinal tissue was analyzed for carotenoids as described previously (1). Cerebellum and occipital cortex samples were collected and analyzed for carotenoids as described by Park et al. (2). […]
Relationships between retina and brain tissue were evaluated using Pearson's correlation coefficients. For those relationships with sample size >6, p values were calculated.

cognitive function = conditions: healthy older adults, intervention trial (Johnson et al. 2008); cited from earlier work

CC1=C(/C=C/C(C)=C/C=C/C(C)=C/C=C/C=C(C)/C=C/C=C(C)/C=C/C2=C(C)C[C@@H](O)CC2(C)C)C(C)(C)C[C@H](O)C1 [Zeaxanthin]
Average plasma level [1]: 0.032 ± 0.021 µM
Carotenoids found in brain tissue [2]: the only carotenoid measured in brain tissue

CC1=C[C@H](O)CC(C)(C)[C@H]1/C=C/C(C)=C/C=C/C(C)=C/C=C/C=C(C)/C=C/C=C(C)/C=C/C1=C(C)C[C@@H](O)CC1(C)C [Lutein]
Average plasma level [1]: 0.27 ± 0.15 µM
Carotenoids found in brain tissue [2]: the only carotenoid measured in brain tissue
Effect of supplementation on cognitive function (cognitive function): improve cognitive function
